Results taken from patent publication US10351856B2, “Ribonucleic acid aptamer having inhibitory effect on non-small cell lung cancer and pharmaceutical composition comprising same” (BIOPHARMAGEN CORP., FANGZHOU SUZHOU, priority 2016, dated 2019).
“And” between values parts separate entries of the source, which are not always exact repeats. Equal values may be shown once. “Also recorded” adds a separate entry of the source.

Tests used:
[1] = system: human non-small cell lung cancer H460 transplanted tumor; test: RA16-EPI adduct or epirubicin on tumor growth in H460 subcutaneous tumor-bearing mice; type: in vivo; settings: 3 times, day 16
Description: In order to clarify the effect of the nucleic acid aptamer RA16-EPI adduct on the growth of human non-small cell lung cancer solid tumors, the inventors used model mice that were injected with human non-small cell lung cancer H460 cells and constructed with a subcutaneous tumor as experimental subjects (initial mean tumor volume was 200-300 mm^3). They were randomly divided into 6 groups, each of which had 5 tumor-bearing mice. One group served as a negative control group (0.1 ml of normal saline was injected intravenously on the 0th, 7th, and 14th days respectively); and the other 5 groups served as treatment groups (different doses of drugs were given every week, and the administration manners and doses are shown in Table 2.). Every 2 days, the tumor diameter of the tumor-bearing mice was measured, the tumor volume was calculated, and the tumor growth curves were drawn (FIG. 5). On the 16th day, the tumor was extracted, the tumor was weighed, and the tumor growth inhibition rate was calculated.

[2] = system: human non-small cell lung cancer cell line H460; test: CCK-8 relative viability / proliferation of H460 cells; type: cell-based; settings: for effect on proliferation of H460 cells: CCK-8, 48 h, 300 nM or 0-400 nM
Description: (§1) In order to clarify the effect of the nucleic acid aptamer RA16 on the proliferation of human non-small cell lung cancer cell lines, the inventors used the CCK-8 method (CCK-8 kit purchased from Dojindo Molecular Technologies, Inc.) to detect the relative viability of human non-small cell lung cancer cell line H460 (ATCC) and other tumor cells (human cervical cancer Hela cells) (the initial cell concentration was 2×10^4 cells/ml) after 48 h of treatment by 300 nM RA16. The same treatment was performed as the control with the same concentration of SCAP obtained by randomly shuffling the RA16.
Further, CCK-8 assay was used to detect the growth conditions of human non-small cell lung cancer H460 cells and human cervical cancer Hela cells (the concentration of test cells was about 2×10^4/ml) after 48 hours of treatment with different concentrations of nucleic acid aptamer RA16 and SCAP (concentration 0, 5, 10, 50, 100, 150, 200, 300, 400 nM respectively) with randomly srambled RA16, and after three independent experiments, the results are shown in FIG. 2A-B.
In order to clarify the effect of the nucleic acid aptamer RA16-EPI adduct on the proliferation of human non-small cell lung cancer cell lines, the inventors used the CCK-8 method to detect the relative viability of human non-small cell lung cancer cell line H460 and other tumor cell lines (human cervical cancer Hela cells) (initial cell concentration was 2×10^4 cells/ml) after 48 h of treatment by 375 nM RA16-EPI.

[3] = system: human cervical cancer Hela cells; test: CCK-8 relative viability / proliferation of Hela cells; type: cell-based; settings: CCK-8, 48 h, 300 nM or 0-400 nM
Description: as §1
Further, CCK-8 assay was used to detect the growth conditions of human non-small cell lung cancer H460 cells and human cervical cancer Hela cells (the concentration of test cells was about 2×10^4/ml) after 48 hours of treatment with different concentrations of nucleic acid aptamer RA16 and SCAP (concentration 0, 5, 10, 50, 100, 150, 200, 300, 400 nM respectively) with randomly srambled RA16, and after three independent experiments, the results are shown in FIG. 2A-B. […]

[4] = system: human non-small cell lung cancer H460 transplanted tumor; test: RA16 on tumor growth in H460 subcutaneous tumor-bearing mice; type: in vivo; settings: 2 nmol i.v. on days 0, 3, 5, 7, 9; tumor weighed on day 16
Description: In order to clarify the effect of the nucleic acid aptamer RA16 on the growth of human non-small cell lung cancer solid tumors, the inventors used model mice that were injected with human non-small cell lung cancer H460 cells and constructed with a subcutaneous tumor as experimental subjects (initial mean tumor volume was 100 mm^3 or so). They were randomly divided into two groups, each of which had 6 tumor-bearing mice. One group served as a negative control group (0.1 ml of normal saline was injected intravenously on the 0th, 3rd, 5th, 7th, and 9th days respectively); and the other was an RA16 treatment group (2 nmol of RA16 was injected intravenously the 0th, 3rd, 5th, 7th, and 9th days respectively). Every other day, the tumor diameter of the tumor-bearing mice was measured, the tumor volume was calculated, and the tumor growth curves were drawn (FIG. 4). On the 16th day, the tumor was extracted, the tumor was weighed, and the tumor growth inhibition rate was calculated.

[5] = high dose, EPI 1.5 mg/kg/week i.v.
[6] = low dose, EPI 0.5 mg/kg/week i.v.

COc1cccc2c1C(=O)c1c(O)c3c(c(O)c1C2=O)C[C@@](O)(C(=O)CO)C[C@@H]3O[C@H]1C[C@H](N)[C@@H](O)[C@H](C)O1 [Epirubicin] was tested, and the “Inhibition Rate (%) of tumor growth” value [1, 5] was 47.13%, the “Tumor Weight” value [1, 5] was 1.97 ± 0.38 g and the “Inhibition Rate (%) of tumor growth” value ([1]; high dose, EPI 1.5 mg/kg/week i.v., listed as EPI) was 47.13%. The “Inhibition Rate (%) of tumor growth” value [1, 6] was 28.76% and the “Tumor Weight” value [1, 6] was 2.65 ± 0.21 g.

B1: SCAP: nucleic acid obtained by randomly shuffling the sequence of RA16, SEQ ID NO: 2, control (nucleic acid)
chain: GGGAGAGAACAAUGACCUGUUGCAAGCGCGUCGGUAAUUCGCGCACAUGGCAGGCUUCUGAGUGCAUUGCAUCACGUCAGUAG
modifications: listed as RNA, chemistry not given here
In the case of B1, the “effect on proliferation of H460 cells” value [2] is reported as “little effect”.

B2: RA16: ribonucleic acid aptamer of SEQ ID NO: 1, prepared by in vitro transcription, binds human non-small cell lung cancer (nucleic acid)
chain: GGGAGAGAACAAUGACCUGCGGUGCCAAGCCGUCGGGUUAUGUUGAUCUCCACAAGGACGAGUGCAUUGCAUCACGUCAGUAG
modifications: listed as RNA, chemistry not fully specified
B2 was tested, and the “effect on proliferation of H460 cells” value [2] was “obviously inhibit the proliferation”, the IC50 ([2]; CCK-8, 48 hours, 0-400 nM, read-out: IC50 of inhibition of proliferation of H460 cells) was 117 nM and the “effect on human cervical cancer Hela cells” value [3] was “no inhibitory effect; also recorded: no obvious effects; also recorded: no significant effect”. For the same molecule, the “Inhibition Rate (%) of tumor growth” value [4] was 54.3% and 54.26%.
